Results: the OligoGym collection
“And” between values parts separate entries of the source, which are not always exact repeats. Identical values can stand only once. After the bases stand the sugars from the 5' end (letter, count) and the backbone: PS all phosphorothioate, else s phosphorothioate and o phosphodiester by linkage. Methylation of C is not given here. e = 2'-O-(2-methoxyethyl) (MOE); k = constrained ethyl (cEt); d = 2'-deoxy (DNA)

Molecular target: SOD1
Details: ASO

## AGTGTTTAATGTTTATC (sugars e3 k2 d7 k2 e3, PS)
HepG2, 0.1875 µM
  target mRNA inhibition: 52%
HepG2, 0.75 µM
  target mRNA inhibition: 78%
HepG2, 3 µM
  target mRNA inhibition: 67% and 86%
HepG2, 12 µM
  target mRNA inhibition: 85%

## AGTTTAATACCCATCTG (sugars e3 k2 d7 k2 e3, PS)
HepG2, 3 µM
  target mRNA inhibition: 10%

## ATAACAGATGAGTTAAG (sugars e2 k2 d8 k2 e3, PS)
HepG2, 4 µM
  target mRNA inhibition: 27%

## ATAACAGATGAGTTAAG (sugars e2 k2 d9 k2 e2, PS)
HepG2, 4 µM
  target mRNA inhibition: 42%

## ATACAGGTCATTGAAAC (sugars e2 k2 d9 k2 e2, PS)
HepG2, 5 µM
  target mRNA inhibition: 22%

## ATACATTTCTACAGCT (sugars ekddddddddekekee, linkages s1 o1 s8 o3 s2)
A431, 0.12 µM
  target mRNA inhibition: 0%
A431, 0.6 µM
  target mRNA inhibition: 9%
A431, 3 µM
  target mRNA inhibition: 0%
A431, 15 µM
  target mRNA inhibition: 25%
HepG2, 0.222 µM
  target mRNA inhibition: 43%
HepG2, 0.667 µM
  target mRNA inhibition: 58%
HepG2, 2 µM
  target mRNA inhibition: 79%
HepG2, 6 µM
  target mRNA inhibition: 91%

## ATACATTTCTACAGCT (sugars kekeddddddddekek, linkages s1 o3 s8 o1 s2)
A431, 0.12 µM
  target mRNA inhibition: 15%
A431, 0.6 µM
  target mRNA inhibition: 14%
A431, 3 µM
  target mRNA inhibition: 16%
A431, 15 µM
  target mRNA inhibition: 52%
HepG2, 0.222 µM
  target mRNA inhibition: 55%
HepG2, 0.667 µM
  target mRNA inhibition: 73%
HepG2, 2 µM
  target mRNA inhibition: 89%
HepG2, 6 µM
  target mRNA inhibition: 95%

## ATACATTTCTACAGCTA (sugars e3 k2 d7 k2 e3, linkages s1 o2 s9 o2 s2)
A431, 0.12 µM
  target mRNA inhibition: 4%
A431, 0.6 µM
  target mRNA inhibition: 13%
A431, 3 µM
  target mRNA inhibition: 26%
A431, 15 µM
  target mRNA inhibition: 37%

## ATACATTTCTACAGCTAG (sugars e5 d8 e5, linkages s1 o3 s9 o2 s2)
A431, 0.12 µM
  target mRNA inhibition: 9%
A431, 0.6 µM
  target mRNA inhibition: 10%
A431, 3 µM
  target mRNA inhibition: 27%
A431, 15 µM
  target mRNA inhibition: 43%
HepG2, 0.222 µM
  target mRNA inhibition: 7%
HepG2, 0.667 µM
  target mRNA inhibition: 28%
HepG2, 2 µM
  target mRNA inhibition: 54%
HepG2, 6 µM
  target mRNA inhibition: 79%

## ATAGCCTCATAATAAGTGCC (sugars e5 d10 e5, PS)
HepG2, 5 µM
  target mRNA inhibition: 19%

## ATCACAGAATCTTCAATAGA (sugars e5 d10 e5, PS)
HepG2, 5 µM
  target mRNA inhibition: 11% and 10%

## ATCCAAGGGAATGTTTA (sugars e2 k2 d8 k2 e3, PS)
HepG2, 4 µM
  target mRNA inhibition: 35%

## ATCCAAGGGAATGTTTA (sugars e2 k2 d9 k2 e2, PS)
HepG2, 4 µM
  target mRNA inhibition: 39%

## ATCTGCTTTTTCATGGA (sugars e3 k2 d7 k2 e3, PS)
HepG2, 3 µM
  target mRNA inhibition: 42%

## ATCTTCCAAGTGATCAT (sugars e2 k2 d9 k2 e2, PS)
HepG2, 5 µM
  target mRNA inhibition: 38%

## ATCTTCCAAGTGATCAT (sugars e3 k2 d7 k2 e3, PS)
HepG2, 3 µM
  target mRNA inhibition: 7%

## ATGAACATGGAATCCAT (sugars e3 k2 d7 k2 e3, PS)
HepG2, 3 µM
  target mRNA inhibition: 8%

## ATGTTTATCAGGATACA (sugars e3 k1 d8 k1 e4, linkages s1 o2 s9 o2 s2)
A431, 0.062 µM
  target mRNA inhibition: 7%
A431, 0.185 µM
  target mRNA inhibition: 18%
A431, 0.556 µM
  target mRNA inhibition: 38%
A431, 1.667 µM
  target mRNA inhibition: 53%
A431, 5 µM
  target mRNA inhibition: 68%
A431, 15 µM
  target mRNA inhibition: 79%
SH-SY5Y, 0.062 µM
  target mRNA inhibition: 4%
SH-SY5Y, 0.185 µM
  target mRNA inhibition: 30%
SH-SY5Y, 0.556 µM
  target mRNA inhibition: 51%
SH-SY5Y, 1.667 µM
  target mRNA inhibition: 68%
SH-SY5Y, 5 µM
  target mRNA inhibition: 88%
SH-SY5Y, 15 µM
  target mRNA inhibition: 92%

## ATGTTTATTGGGCGATC (sugars e3 k2 d7 k2 e3, PS)
HepG2, 3 µM
  target mRNA inhibition: 28%

## ATTCACAGGCTTGAATG (sugars e2 k2 d9 k2 e2, PS)
HepG2, 5 µM
  target mRNA inhibition: 29%

## ATTGATGATGCCCTGCACTG (sugars e5 d10 e5, PS)
HepG2, 4 µM
  target mRNA inhibition: 8%

## ATTTCTACAGCTAGCAG (sugars e2 k2 d9 k2 e2, PS)
HepG2, 0.1875 µM
  target mRNA inhibition: 10%
HepG2, 0.75 µM
  target mRNA inhibition: 47%
HepG2, 3 µM
  target mRNA inhibition: 77%
HepG2, 4 µM
  target mRNA inhibition: 75%
HepG2, 12 µM
  target mRNA inhibition: 91%

## CAAGTGATCATAAATCA (sugars e2 k2 d8 k2 e3, PS)
HepG2, 5 µM
  target mRNA inhibition: 47%

## CAAGTGATCATAAATCA (sugars e2 k2 d9 k2 e2, PS)
HepG2, 5 µM
  target mRNA inhibition: 29%

## CAAGTTTAATACCCATC (sugars e2 k2 d8 k2 e3, PS)
HepG2, 5 µM
  target mRNA inhibition: 52%

## CAATTACACCACAAGCC (sugars e2 k2 d8 k2 e3, PS)
HepG2, 4 µM
  target mRNA inhibition: 58%

## CACAAGCCAAACGACTTCCA (sugars e5 d10 e5, PS)
HepG2, 5 µM
  target mRNA inhibition: 47%

## CACACCTTCACTGGTCC (sugars e3 k2 d7 k2 e3, PS)
HepG2, 3 µM
  target mRNA inhibition: 12%
